Laboratory results taken from patent US6001882A (priority 1997, dated 1999).
Values joined by “and” are separate entries in the source; they are usually repeats but may differ in a detail not shown here. Identical values can stand only once. Like-named read-outs stand apart in the source and are kept apart here.

What was measured:
malignant leukocytes = assay: Flow cytometric sorting of apoptotic malignant leukocytes (dUTP-FITC incorporation); type: cell-based, human; settings: 10 μM hypericin or 0.462 μM 8-MOP, 18 h
Excerpt: FIG. 8, comprising Panels A-G, is a series of graphs which represent distributions of cell types within various cultures, as assessed by flow cytometric cell sorting, using incorporation of dUTP-FITC into fragmented DNA as a selection criterion. Malignant leukocytes which have not been induced to undergo apoptosis are represented as points which are located below an imaginary horizontal line located at approximately 2×10^1 on the vertical axis of each graph. Malignant leukocytes which have been induced to undergo apoptosis are represented as points which are located above an imaginary horizontal line located at approximately 3×10^1 on the vertical axis of each graph. […] The graph in Panel B corresponds to cells which were treated with hypericin and which were not illuminated. The graph in Panel C corresponds to cells which were treated with hypericin and which were illuminated using visible light. The graph in Panel D corresponds to cells which were treated with hypericin and which were illuminated using UV-A light. The graph in Panel E corresponds to cells which were treated with 8-MOP and which were not illuminated. The graph in Panel F corresponds to cells which were treated with 8-MOP and which were illuminated using visible light. The graph in Panel G corresponds to cells which were treated with 8-MOP and which were illuminated using UV-A light.
Hypericin-treated malignant leukocytes and 8-MOP-treated leukocytes were photoactivated using visible light for 20 minutes or 2 J/cm^2 UV-A light, or were not photoactivated, as described in Example 1. 18 hours after photoactivation, or 18 hours after preparation of the cultures which were not photoactivated, leukocyte cultures were harvested, and apoptotic cells were separated from non-apoptotic cells using a FACScan flow cytometer (Becton Dickinson Immunocytometry Systems, San Jose, Calif.). Apoptotic cells were distinguished from non-apoptotic cells based on increased dUTP-FITC incorporation.

[1] = test system: PBMC obtained from a subject having CTCL; assay: Induction of apoptosis in CTCL PBMC, TUNEL assay (Example 3); type: cell-based, human; settings: for percentage of PBMC which underwent apoptosis: CTCL, 18 h; for capability of inducing apoptosis: malignant leukocytes
[2] = test system: PBMC obtained from a normal human subject; assay: Induction of apoptosis in normal PBMC, TUNEL assay (Example 3); type: cell-based; settings: for percentage of PBMC which underwent apoptosis: Normal, 18 h; for capability of inducing apoptosis: normal leukocytes, visible light
[3] = test system: PBMC obtained from a patient having CTCL; assay: Induction of apoptosis of CTCL PBMC, TUNEL assay (Example 2); type: cell-based, human; settings: for percentage of PBMC which underwent apoptosis: 10 μM hypericin or 100 ng/ml 8-MOP
Protocol: The processing of neoplastic leukocytes, the media and stock solutions used, and the procedures which were used were the same as those presented in Example 1, except as described below.
Cultures were illuminated using fluorescent light for 20 minutes, illuminated with 2 J/cm^2 UV-A light or were not illuminated. After 24 and 48 hours, apoptosis was measured using a TUNEL assay, as described (Sgonc, 1994 Trends Gen. 10:41-42). The TUNEL assay specifically labels free ends of internucleosomally-cleaved DNA--the hallmark of the apoptotic process.

normal PBMC = assay: Lymphocyte proliferation (3H-TdR incorporation), ConA-stimulated PBMC from normal human subject; type: cell-based; settings: for IC50: read-out: IC50 of ConA-induced cell proliferation; for IC100: 72 h, read-out: concentration at which proliferation was completely inhibited
Excerpt: In two of the types of lymphocytes, the mitogen, ConA, was used to induce proliferation, as described (Fox et al., 1993, Cell. Immunol. 150:45-58). The third type of lymphocytes used in this example proliferated actively in vitro without the need for mitogenic stimulation. The three types of lymphocytes which were used in this example were: PBMC obtained from a normal human subject and stimulated with ConA; PBMC, including malignant CD4+ T-lymphocytes, obtained from a human subject having CTCL and stimulated with ConA; and PBMC obtained from a normal human subject, which PBMC were exposed to Epstein-Barr virus (EBV) after being obtained from the subject, to produce transformed lymphocytes. It is known that EBV-transformed B-lymphocytes proliferate actively in vitro (Polack, 1996, Proc. Natl. Acad. Sci. U.S.A. 93:10411-10416; Longnecker, 1994, Leukemia 8:546-550).
Peripheral blood mononuclear cells (PBMC) were obtained by separating them from whole blood, using Ficoll-Paque separation techniques and media (Boyum, 1964, Nature 793-794). After they were obtained, PBMC were resuspended in RPMI 1640 medium, which comprised 10% (v/v) fetal bovine serum (GIBCO, Grand Island, N.Y.), and were distributed into the wells of 96-well microtiter plates. PBMC transformed using EBV were made as described (Neitzel, 1986, Hum. Gen. 73:320-326)
This stock solution stored at 4° C. in the dark. A stock solution comprising 462.5 μM 8-methoxypsoralen (8-MOP) was prepared in 2% (v/v) benzyl alcohol. 8-MOP was obtained from Sigma (St. Louis, Mo.).
In cultures of transformed leukocytes in which 8-MOP was used, the concentrations of 8-MOP which were used were 92.5 μM, 18.5 μM, 3.7 μM, 0.74 μM, 0.15 μM, and 0.030 μM. Thereafter, ConA was then added to preselected wells to achieve a final concentration of 10 μg/ml of ConA in those wells.
Following preparation of the microtiter culture plates, preselected plates were illuminated with fluorescent visible light for 10-30 minutes, using four fluorescent bulbs (type F15T8CW, TFC Inc., Taiwan) spaced at a distance of 9 cm above the plates. Other preselected plates were illuminated with 0.5-2 Joules per square centimeter UV-A light using a UV-A light box containing 8 UVAR 06-91 bulbs. Still other preselected plates were not exposed to light. The covers of plates which were exposed to light were left in place during illumination.
Following illumination, plates which had been illuminated were placed into a dark incubator which was maintained at 37° C. Non-illuminated plates were placed into the incubator immediately after preparation. All plates were incubated for seventy-two hours. During the final eighteen hours of incubation, tritiated thymidine (^3 H-TdR) was added to each well of each plate. No extraordinary precautions were used to prevent light exposure during the addition of ^3 H-TdR.
Lymphocyte proliferation was assessed by measuring the extent of incorporation of ^3 H-TdR into newly synthesized DNA within the cells at the end of the seventy-two hour incubation period, as described (Fox, 1993, Cell. Immunol. 150:45-58).

[4] = Homo sapiens, PBMC, 10 min, visible light, 10 min
[5] = Homo sapiens, PBMC, 20 min, visible light, 20 min
[6] = Homo sapiens, PBMC, UV-A, 0.5 J/sc
[7] = Homo sapiens, PBMC, UV-A, 1 J/sc
[8] = Homo sapiens, PBMC, not illuminated, benzyl alcohol vehicle itself inhibitory at highest concentrations

`COc1c2occc2cc2ccc(=O)oc12` [8-MOP, 8-methoxypsoralen] was tested, and the “induction of apoptosis (flow cytometry, FIG. 8)” value (from here on “induction of apoptosis”) (malignant leukocytes; UV-A 2 J/cm^2) was “induced apoptosis in most cells”, the “induction of apoptosis” value (malignant leukocytes; no photoactivation) was “neither hypericin nor 8-MOP induced significant apoptosis” and the “induction of apoptosis” value (malignant leukocytes; visible light 20 min) was “induced apoptosis in only a limited number of cells”. The “percentage of PBMC which underwent apoptosis” value (shortened to “percentage”) ([1]; 1 μM, UV-A 2 J/cm^2) was 44.0 percentage, the “percentage” value ([1]; 1 μM, no light) was 2.5 percentage and the “percentage” value ([1]; 1 μM, visible light 20 min) was 11.0 percentage. The “percentage” value ([1]; 10 μM, UV-A 2 J/cm^2) was 74.3 percentage, the “percentage” value ([1]; 10 μM, no light) was 2.4 percentage and the “percentage” value ([1]; 10 μM, visible light 20 min) was 12.2 percentage. For the same compound, the “selectivity of apoptosis induction, malignant vs normal leukocytes” value ([1]; UV-A light) was “the magnitude of the selective effect was much smaller”, the “capability of inducing apoptosis” value ([1]; UV-A light) was “capable of inducing apoptosis in malignant leukocytes” and the “capability of inducing apoptosis” value ([1]; visible light) was “not 8-MOP, is capable of inducing apoptosis in both normal and malignant leukocytes”. For the same compound, the “percentage” value ([2]; 1 μM, UV-A 2 J/cm^2) was 22.9 percentage, the “percentage” value ([2]; 1 μM, no light) was 3.8 percentage and the “percentage” value ([2]; 1 μM, visible light 20 min) was 13.7 percentage. For the same compound, the “percentage” value ([2]; 10 μM, UV-A 2 J/cm^2) was 63.0 percentage, the “percentage” value ([2]; 10 μM, no light) was 6.8 percentage and the “percentage” value ([2]; 10 μM, visible light 20 min) was 15.3 percentage. The “capability of inducing apoptosis” value [2] was “not 8-MOP, is capable of inducing apoptosis in both normal and malignant leukocytes”, the “percentage” value ([3]; 24 h, UV-A 2 J/cm^2) was 87 percentage and the “percentage” value ([3]; 24 h, no light) was 11.5 percentage. The “percentage” value ([3]; 24 h, visible light 20 min) was 32 percentage, the “percentage” value ([3]; 48 h, UV-A 2 J/cm^2) was 94 percentage and the “percentage” value ([3]; 48 h, no light) was 21 percentage. For the same compound, the “percentage” value ([3]; 48 h, visible light 20 min) was 48 percentage, the “potency as inducer of apoptosis, hypericin vs 8-MOP” value (“potency as inducer … vs 8-MOP” for short) ([3]; UV-A light) was “approximately equally potent inducers of apoptosis of malignant leukocytes” and the IC50 (normal PBMC; [4]) was 33.5 µM. It also gave an IC50 (normal PBMC; [5]) of 33.5 µM, an IC50 (normal PBMC; Homo sapiens, PBMC, 0.5 h, visible light, 30 min) of 33.5 µM and an IC50 (normal PBMC; [6]) of 0.96 µM. For the same compound, the IC50 (normal PBMC; [7]) was 0.17 µM, the IC50 (normal PBMC; Homo sapiens, PBMC, UV-A, 2 J/sc) was 0.15 µM and the IC50 (normal PBMC; [8]) was 33.5 µM.

`Cc1cc(O)c2c(=O)c3c(O)cc(O)c4c5c(O)cc(O)c6c(=O)c7c(O)cc(C)c8c1c2c(c34)c(c78)c65` [hypericin, 1,3,4,6,8,13-Hexahydroxy-10,11,dimethyl-phenanthro[1,10,9,8,-opqra]perylene-7,14-dione] was tested, and the “induction of apoptosis” value (malignant leukocytes; UV-A 2 J/cm^2) was “induced apoptosis in most cells”, the “induction of apoptosis” value (malignant leukocytes; no photoactivation) was “neither hypericin nor 8-MOP induced significant apoptosis” and the “induction of apoptosis” value (malignant leukocytes; visible light 20 min) was “induced apoptosis in nearly all cells”. The “percentage” value ([1]; 1 μM, UV-A 2 J/cm^2) was 26.1 percentage, the “percentage” value ([1]; 1 μM, no light) was 2.6 percentage and the “percentage” value ([1]; 1 μM, visible light 20 min) was 17.2 percentage. The “percentage” value ([1]; 10 μM, UV-A 2 J/cm^2) was 94.4 percentage, the “percentage” value ([1]; 10 μM, no light) was 2.8 percentage and the “percentage” value ([1]; 10 μM, visible light 20 min) was 94.3 percentage. For the same compound, the “capability of inducing apoptosis” value ([1]; UV-A light) was “capable of inducing apoptosis in malignant leukocytes”, the “capability of inducing apoptosis” value ([1]; visible light) was “capable of inducing apoptosis in both normal and malignant leukocytes” and the “percentage” value ([2]; 1 μM, UV-A 2 J/cm^2) was 21.2 percentage. For the same compound, the “percentage” value ([2]; 1 μM, no light) was 4.8 percentage, the “percentage” value ([2]; 1 μM, visible light 20 min) was 18.2 percentage and the “percentage” value ([2]; 10 μM, UV-A 2 J/cm^2) was 37.3 percentage. The “percentage” value ([2]; 10 μM, no light) was 5.4 percentage, the “percentage” value ([2]; 10 μM, visible light 20 min) was 87.9 percentage and the “capability of inducing apoptosis” value [2] was “capable of inducing apoptosis in both normal and malignant leukocytes”. The “percentage” value ([3]; 24 h, UV-A 2 J/cm^2) was 88 percentage, the “percentage” value ([3]; 24 h, no light) was 11.5 percentage and the “percentage” value ([3]; 24 h, visible light 20 min) was 97 percentage. For the same compound, the “percentage” value ([3]; 48 h, UV-A 2 J/cm^2) was 96 percentage, the “percentage” value ([3]; 48 h, no light) was 18 percentage and the “percentage” value ([3]; 48 h, visible light 20 min) was 91 percentage. For the same compound, the “potency as inducer … vs 8-MOP” value ([3]; UV-A light) was “approximately equally potent inducers of apoptosis of malignant leukocytes”, the “potency as inducer … vs 8-MOP” value ([3]; visible light) was “much more potent inducer of apoptosis of malignant leukocytes than 8-MOP” and the IC50 (normal PBMC; [4]) was 0.76 µM. The IC50 (normal PBMC; [5]) was 0.11 µM, the IC100 (normal PBMC; Homo sapiens, PBMC, visible light, 10 min) was 3.2 µM and the IC100 (normal PBMC; Homo sapiens, PBMC, visible light, 20 min) was 0.64 µM. For the same compound, the IC50 (normal PBMC; [6]) was 4.6 µM, the IC50 (normal PBMC; [7]) was 2.1 µM and the IC50 (normal PBMC; [8]) was 22 µM. The “inhibition of mitogen-induced proliferation” value (normal PBMC; normal PBMC) was “inhibits mitogen-induced proliferation of PBMC”, the IC50 (normal PBMC; not illuminated, benzyl alcohol vehicle itself inhibitory at highest concentrations) was 23.2 µM and the “effect of 30 min illumination on inhibition of proliferation” value (normal PBMC; visible light 30 min, relative to shorter illumination) was “did not significantly increase inhibition of cell proliferation”. The IC50 (normal PBMC; visible light, 10 min) was 0.68 µM and 0.8 µM and the IC50 (normal PBMC; visible light, 20 min) was 0.18 µM and 0.1 µM.
